Source: ChEMBL document CHEMBL6115007, “Synthesis and in vitro and in vivo evaluation of novel bivalent quinolines as antitumor agents via targeting autophagy in cervical cancer” (Eur J Med Chem, 2025)
pIC50: −log10 of the molar value. The source made the active and inactive calls. The calls are words filed in the database; no cut-off is given here.

Columns and labels:
HeLa [1] = assay: Induction of autophagy in human HeLa cells transfected with mRFP-GFP-LC3 plasmid assessed as stable RFP fluorescence at 0.4 to 0.8 uM incubated for 24 hrs by DAPI staining based fluorescence confocal microscopic analysis; type: functional, cell-based; conditions: dose 0.4-0.8 µM
HeLa [2] = assay: Effect on cleaved caspase 3 expression level in Bax deficient human HeLa cells at 0.6 to 1.2 uM incubated for 24 hrs by Western blot analysis; type: functional, cell-based; conditions: dose 0.6-1.2 µM
Ca-Ski [3] = assay: Effect on cleaved PARP expression level in human Ca Ski cells at 0.25 to 1 uM incubated for 24 hrs by Western blot analysis; type: functional, cell-based; conditions: dose 0.25-1 µM
Ca-Ski [4] = assay: Induction of autophagy in human Ca Ski cells transfected with mRFP-GFP-LC3 plasmid assessed as appearance of RFP puncta clusters as aggregates in cytoplasm at 0.3 to 0.6 uM incubated for 24 hrs by DAPI staining based fluorescence confocal microscopic analysis; type: functional, cell-based; conditions: dose 0.3-0.6 µM
Ca-Ski [5] = assay: Effect on GPX4 protein expression level in human Ca Ski cells at 0.5 uM incubated for 24 hrs by Western blot analysis; type: functional, cell-based
C-33-A = assay: Induction of morphological changes in human C-33-A cells assessed as decrease in cell adherence to culture dish at 0.3 to 1.2 uM by microphotographic analysis; type: functional, cell-based; conditions: dose 0.3-1.2 µM
[6] = Toxicity in female BALB/c mouse xenografted with human HeLa cells assessed as effect on kidney at 4 to 8 mg/kg administered every four days and measured after 26 days by H and E staining based analysis; type: organism-based; conditions: in vivo, 624 h, dose 4-8 mg/kg, time 26 day
HeLa [7] = assay: Induction of autophagy in human HeLa cells transfected with mRFP-GFP-LC3 plasmid assessed as decrease in GFP fluorescence at 0.4 to 0.8 uM incubated for 24 hrs by DAPI staining based fluorescence confocal microscopic analysis; type: functional, cell-based; conditions: dose 0.4-0.8 µM
[8] = Toxicity in female BALB/c mouse xenografted with human HeLa cells assessed as effect on BUN level at 4 to 8 mg/kg administered every four days and measured after 26 days; type: organism-based; conditions: in vivo, 624 h, dose 4-8 mg/kg, time 26 day
HepG2 = assay: Antiproliferative activity against human HepG2 cells assessed as reduction in cell optical density incubated for 48 hrs by MTT assay; type: functional, cell-based; conditions: HepG2, 48 h
Ca-Ski [9] = assay: Induction of apoptosis in human Ca Ski cells assessed as late apoptotic cells at 0.5 uM preincubated with Z-VAD-FMK for 1 hrs followed by compound addition and measured after 24 hrs by Annexin V-FITC/PI staining based flow cytometric analysis (reference value: 5.30 %); type: functional
Ca-Ski [10] = assay: Induction of autophagy in human Ca Ski cells assessed as increase in LC3-II accumulation at 0.5 uM incubated for 3 to 48 hrs by Western blot analysis; type: functional, cell-based; conditions: time 3-48 hrs
HeLa [11] = assay: Effect on cleaved PARP expression level in Bax deficient human HeLa cells at 0.6 to 1.2 uM incubated for 24 hrs by Western blot analysis; type: functional, cell-based; conditions: dose 0.6-1.2 µM
HeLa [12] = assay: Induction of apoptosis in human HeLa cells assessed as early apoptotic cells at 1.2 uM preincubated with Z-VAD-FMK for 1 hrs followed by compound addition and measured after 24 hrs by Annexin V-FITC/PI staining based flow cytometric analysis (reference value: 0.96 %); type: functional
HeLa [13] = assay: Antitumor activity against human HeLa cells xenografted in female BALB/c mouse assessed as reduction in tumor growth at 4 to 8 mg/kg administered every four days and measured after 26 days; type: functional, organism-based; conditions: dose 4-8 mg/kg, time 26.0 day
HeLa [14] = assay: Induction of apoptosis in human HeLa cells assessed as viable cells at 1.2 uM incubated for 24 hrs by Annexin V-FITC/PI staining based flow cytometric analysis (reference value: 96.2 %); type: functional; conditions: read-out: Activity
HeLa [15] = assay: Antiproliferative activity against human HeLa cells assessed as inhibition of cell growth at 0.4 to 1.6 uM by CCK8 assay; type: functional, cell-based; conditions: dose 0.4-1.6 µM, time 6.0 day
HeLa [16] = assay: Effect on cleaved PARP expression level in human HeLa cells at 0.3 to 1.2 uM incubated for 24 hrs by Western blot analysis; type: functional, cell-based; conditions: dose 0.3-1.2 µM
SiHa [17] = assay: Induction of morphological changes in human SiHa cells assessed as increase in inflated cell appearance at 0.5 to 2 uM by microphotographic analysis; type: functional, cell-based; conditions: dose 0.5-2 µM
HeLa [18] = assay: Effect on ferroptosis pathway related gene expression in human HeLa cells at 1.2 uM incubated for 24 hrs by GSVA enrichment analysis; type: functional, cell-based
HeLa [19] = assay: Induction of autophagy in human HeLa cells assessed as increase in LC3-I conversion to LC3-II at 0.3 to 1.2 microM incubated for 24 hrs by Western blot analysis; type: functional, cell-based; conditions: dose 0.3-1.2 µM
HeLa [20] = assay: Antitumor activity against human HeLa cells xenografted in female BALB/c mouse assessed as reduction in tumor weight at 4 mg/kg administered every four days and measured after 26 days relative to control; type: functional; design: scale not given: the % may be the effect or the level left; conditions: time 26 day
SiHa [21] = assay: Induction of morphological changes in human SiHa cells assessed as increase in appearance of round cells at 0.5 to 2 uM by microphotographic analysis; type: functional, cell-based; conditions: dose 0.5-2 µM
HeLa [22] = assay: Induction of autophagy in human HeLa cells transfected with mRFP-GFP-LC3 plasmid assessed as appearance of RFP puncta clusters as aggregates in cytoplasm at 30 uM incubated for 24 hrs by DAPI staining based fluorescence confocal microscopic analysis; type: functional, cell-based
Ca-Ski [23] = assay: Effect on caspase 3 expression level in Bax deficient human Ca Ski cells at 0.5 to 1 uM incubated for 24 hrs by Western blot analysis; type: functional, cell-based; conditions: dose 0.5-1 µM
HeLa [24] = assay: Antiproliferative activity against ATG5 deficient human HeLa cells assessed as inhibition of cell viability incubated for 24 hrs by CCK8 assay; type: functional, cell-based
HeLa [25] = assay: Induction of autophagy in human HeLa cells transfected with mRFP-GFP-LC3 plasmid assessed as appearance of RFP puncta clusters as aggregates in cytoplasm at 0.4 to 0.8 uM incubated for 24 hrs by DAPI staining based fluorescence confocal microscopic analysis; type: functional, cell-based; conditions: dose 0.4-0.8 µM
Ca-Ski [26] = assay: Inhibition of colony formation in ATG5 deficient human Ca Ski cells at 0.1 to 0.4 uM incubated for 24 hrs by crystal violet staining based analysis; type: functional, cell-based; conditions: dose 0.1-0.4 µM
HeLa [27] = assay: Effect on cleaved caspase 3 expression level in p53 deficient human HeLa cells at 0.6 to 1.2 uM incubated for 24 hrs by Western blot analysis; type: functional, cell-based; conditions: dose 0.6-1.2 µM
Ca-Ski [28] = assay: Induction of autophagy in human Ca Ski cells assessed as increase in p62 level at 0.25 to 1 microM incubated for 24 hrs by Western blot analysis; type: functional, cell-based; conditions: dose 0.25-1 µM
HeLa [29] = assay: Effect on SLC7A11 protein expression level in human HeLa cells at 0.6 uM incubated for 24 hrs by Western blot analysis; type: functional, cell-based
Ca-Ski [30] = assay: Inhibition of colony formation in ATG7 deficient human Ca Ski cells at 0.1 to 0.4 uM incubated for 24 hrs by crystal violet staining based analysis; type: functional, cell-based; conditions: dose 0.1-0.4 µM
HeLa [31] = assay: Induction of apoptosis in human HeLa cells assessed as viable cells at 1.2 uM preincubated with Z-VAD-FMK for 1 hrs followed by compound addition and measured after 24 hrs by Annexin V-FITC/PI staining based flow cytometric analysis (reference value: 95.8 %); type: functional; conditions: read-out: Activity

COc1cccc(Nc2ccnc3cc(OCCCCCOc4ccc5c(Nc6cccc(OC)c6)ccnc5c4)ccc23)c1
Activity (HeLa [1]): Active | Activity (HeLa [2]): inactive | Activity (Ca-Ski [3]): inactive | Activity (Ca-Ski [4]): Active | Activity (Ca-Ski [5]): Moderate_effect | Activity (C-33-A): Active | Activity [6]: Non-toxic | Activity (HeLa [7]): Active | Activity [8]: Non-toxic | pIC50 (HepG2): 4.50 | Activity (Ca-Ski [9]): 17.3% | Activity (Ca-Ski [10]): Active | Activity (HeLa [11]): inactive | Activity (HeLa [12]): 1.22% | Activity (HeLa [13]): Active | viability at 1.2 µM (HeLa [14]): 93.2% | Activity (HeLa [15]): Time-dependent-effect | Activity (HeLa [16]): inactive | Activity (SiHa [17]): Active | Activity (HeLa [18]): Minimal_effect | Activity (HeLa [19]): Active | Activity (HeLa [20]): 46.27% | Activity (SiHa [21]): Active | Activity (HeLa [22]): Active | Activity (Ca-Ski [23]): inactive | pIC50 (HeLa [24]): 5.79 | Activity (HeLa [25]): Active | inhibition (Ca-Ski [26]): Minimal_effect | Activity (HeLa [27]): inactive | Activity (Ca-Ski [28]): Active | Activity (HeLa [29]): Moderate_effect | inhibition (Ca-Ski [30]): Minimal_effect | viability at 1.2 µM (HeLa [31]): 93.6%
